This passage reports IC50 results from patent US11377438B2, “2-amino-n-heteroaryl-nicotinamides as Nav1.8 inhibitors” (Merck Sharp & Dohme Corp., priority 2018, dated 2022).

The structures appear in SMILES notation.

Chain of human Nav1.8 (Q9Y5Y9 whole entry): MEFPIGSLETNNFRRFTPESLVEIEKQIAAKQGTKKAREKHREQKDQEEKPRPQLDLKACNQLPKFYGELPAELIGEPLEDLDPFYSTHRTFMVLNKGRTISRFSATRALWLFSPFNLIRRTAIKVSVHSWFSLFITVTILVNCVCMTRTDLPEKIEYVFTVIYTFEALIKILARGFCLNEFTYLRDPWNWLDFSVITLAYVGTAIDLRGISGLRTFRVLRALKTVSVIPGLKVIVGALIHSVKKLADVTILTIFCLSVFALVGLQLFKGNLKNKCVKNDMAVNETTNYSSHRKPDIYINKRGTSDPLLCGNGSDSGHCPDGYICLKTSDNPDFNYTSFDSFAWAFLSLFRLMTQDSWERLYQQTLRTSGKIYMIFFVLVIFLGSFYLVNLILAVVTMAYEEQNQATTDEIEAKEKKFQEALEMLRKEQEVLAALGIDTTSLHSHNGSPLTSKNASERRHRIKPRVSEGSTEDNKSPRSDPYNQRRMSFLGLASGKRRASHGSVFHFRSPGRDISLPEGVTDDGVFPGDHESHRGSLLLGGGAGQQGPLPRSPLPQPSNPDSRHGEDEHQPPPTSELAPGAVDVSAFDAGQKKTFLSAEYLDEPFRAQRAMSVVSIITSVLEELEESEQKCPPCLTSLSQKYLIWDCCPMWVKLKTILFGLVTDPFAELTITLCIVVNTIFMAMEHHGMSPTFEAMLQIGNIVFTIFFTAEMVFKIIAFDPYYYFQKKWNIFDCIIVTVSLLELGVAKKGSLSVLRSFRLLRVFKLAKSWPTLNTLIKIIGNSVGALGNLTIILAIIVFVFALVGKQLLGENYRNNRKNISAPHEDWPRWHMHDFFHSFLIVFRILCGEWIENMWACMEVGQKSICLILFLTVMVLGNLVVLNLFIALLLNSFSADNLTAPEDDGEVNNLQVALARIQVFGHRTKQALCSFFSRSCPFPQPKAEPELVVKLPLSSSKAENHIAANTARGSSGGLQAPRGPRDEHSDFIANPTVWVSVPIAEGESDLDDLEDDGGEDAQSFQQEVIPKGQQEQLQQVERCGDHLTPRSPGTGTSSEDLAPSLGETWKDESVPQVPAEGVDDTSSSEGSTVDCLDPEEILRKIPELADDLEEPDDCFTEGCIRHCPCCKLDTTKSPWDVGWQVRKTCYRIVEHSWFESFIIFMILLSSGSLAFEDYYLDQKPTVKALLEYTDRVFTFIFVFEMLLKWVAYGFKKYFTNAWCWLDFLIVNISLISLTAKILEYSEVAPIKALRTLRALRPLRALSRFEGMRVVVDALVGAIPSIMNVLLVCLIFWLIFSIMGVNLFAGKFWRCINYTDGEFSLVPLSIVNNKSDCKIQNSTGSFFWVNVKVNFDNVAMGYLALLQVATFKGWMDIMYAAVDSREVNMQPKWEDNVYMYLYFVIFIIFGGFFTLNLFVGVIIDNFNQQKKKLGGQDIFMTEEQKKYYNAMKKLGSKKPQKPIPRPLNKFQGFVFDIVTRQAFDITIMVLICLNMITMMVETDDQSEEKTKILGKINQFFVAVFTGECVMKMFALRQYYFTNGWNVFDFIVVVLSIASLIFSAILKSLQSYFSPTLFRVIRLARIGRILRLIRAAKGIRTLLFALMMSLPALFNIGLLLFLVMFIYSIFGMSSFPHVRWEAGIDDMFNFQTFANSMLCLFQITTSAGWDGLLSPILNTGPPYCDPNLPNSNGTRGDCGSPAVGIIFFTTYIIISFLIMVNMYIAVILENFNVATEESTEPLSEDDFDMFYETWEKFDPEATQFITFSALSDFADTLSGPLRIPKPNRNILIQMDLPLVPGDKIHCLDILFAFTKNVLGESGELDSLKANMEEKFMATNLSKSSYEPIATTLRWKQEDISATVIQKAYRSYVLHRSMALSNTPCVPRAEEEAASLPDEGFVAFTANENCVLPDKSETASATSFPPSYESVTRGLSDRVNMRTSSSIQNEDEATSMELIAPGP

The assay concerns the target human Nav1.8 (Homo sapiens (Human), UniProt Q9Y5Y9). The assay is described as follows: Nav1.8 Qube automated patch-clamp assay. The class given is cell-based. The conditions noted are these: human Nav1.8 stably expressed in HEK 293 cells, whole-cell voltage clamp, room temperature; read-out: IC50 (nM) in the Nav 1.8 Qube Assay. As to the method: Qube® Assay Experimental Procedure Compounds were tested on human Nav1.8 and Nav1.5 channels stably expressed in human embryo kidney (HEK) 293 cells. Sodium current measurements on Qube® were conducted as follows: automated 384-well patch-clamp assays on the Qube® platform (Sophion Biosciences) were used to measure the inhibition of sodium flow through human Nav1.8 and Nav1.5 channels. Whole-cell voltage-clamp recordings were performed in QChips® (Sophion Biosciences) at room temperature. Nav1.8 current measurements on Qube® were obtained as follows: Nav1.8 currents were elicited with a 10 second 1 Hertz (Hz) pulse train from a holding potential of −90 millivolts (mV), delivered to the cells once per minute in the control condition (DMSO only) and after compound addition. The 1 hertz pulse train stimulation consisted often test pulses to 10 millivolt (mV) for 20 milliseconds (ms), each of which was followed by a 980 millisecond repolarization to −67 millivolts. At the end of the 10 second pulse train stimulation, a 5 second hyperpolarization step to −100 millivolt (mV) was used to recover Nav1.8 from fast inactivation. The peak currents elicited by the 1st and 10th test pulses were used to determine IC50 values for resting inhibition and inactivated state inhibition. Nav1.5 current measurements on Qube® were obtained as follows: Nav1.5 currents were elicited with a 20 second 3 Hertz pulse train in the control condition (DMSO only) and after compound addition. The pulse train consisted of sixty 20 millisecond test pulses to 0 millivolt from a holding potential of −80 millivolt (mV). The average peak currents elicited by the last 3 test pulses were used to determine IC50 values for Nav1.5 inhibition.
The following buffers were used for the Qube® recordings: External buffer for Nav1.8 Qube® recording: 150 NaCl, 2 CaCl2, 5 KCl, 1 Mg Cl2, 10 HEPES, 12 Dextrose; External buffer for Qube® Nav1.5 recording: 120 N-Methyl-D-Glucamine, 40 NaCl, 1 KCl, 2.7 CaCl2), 5 HEPES, 0.5 MgCl2; and Internal buffer for Qube® recording: 120 CsF, 30 CsCl, 10 EGTA, 5 HEPES, 5 NaF, 2 MgCl2.
For all Qube® experiments offline analysis was used to determine percent inhibition as a function of drug concentration. IC50 values were determined by fitting to the Hill equation.
For orientation: The patch-clamp technique gives a direct electrical read-out from membranes.
What is called IC50 is the concentration that gives 50% inhibition. With `C[C@H]1CN(c2nc(C3CCC3)c(Cl)cc2C(=O)Nc2ccnc(S(N)(=O)=O)c2)C[C@H](C(F)(F)F)O1` (single isomer, unassigned) [Example 161, 5-chloro-6-cyclobutyl-2-((2S,6R or 2R,6S)-2-methyl-6-(trifluoromethyl)morpholino)-N-(2-sulfamoylpyridin-4-yl)nicotinamide], the IC50 turned out to be 63 nM.

As to `CC[C@@H]1CN(c2ncc(C(F)(F)F)cc2C(=O)Nc2ccnc(S(N)(=O)=O)c2)C[C@@H](C(F)(F)F)O1` (single isomer, unassigned) [Example 133, 2-((2R,6S or 2S,6R)-2-ethyl-6-(trifluoromethyl)morpholino)-N-(2-sulfamoylpyridin-4-yl)-5-(trifluoromethyl)nicotinamide], the IC50 stood at 12 nM.

Consider `Cc1nc(N2CCC(F)(F)CC2)c(C(=O)Nc2ccnc(S(N)(=O)=O)c2)cc1C#CC1CC1` [Example 16, 5-(cyclopropylethynyl)-2-(4,4-difluoropiperidin-1-yl)-6-methyl-N-(2-sulfamoylpyridin-4-yl)nicotinamide], for which the IC50 amounted to 12 nM.

In the case of `CC1CN(c2ncc(C(F)(F)F)cc2C(=O)Nc2ccnc(S(N)(=O)=O)c2)CCC(C(F)(F)F)O1` (single isomer, unassigned) [Example 121, 2-((2R,7S or 2S.7R)-2-methyl-7-(trifluoromethyl)-1,4-oxazepan-4-yl)-N-(2-sulfamoylpyridin-4-yl)-5-(trifluoromethyl)nicotinamide], the IC50 stood at 58 nM.
